Measured values published in patent publication US10464904B2, “Dextrorphan-derivatives with suppressed central nervous activity” (Heinrich-Heine-Universität Düsseldorf, priority 2015, dated 2019).

Experiment: Rotarod test, time on rod
Format: in vivo, C57BL/6 mice
Settings: mice, 30 minutes after i.p. injection
Procedure: FIG. 6: Time that C57BL/6 mice stayed on rod 30 minutes after i.p. injection of PBS without (control) or with either 50 μg g^−1 body weight DXO or 100 μg g^−1 body weight compound (4); n=5 male mice each. Significance determined by Student's t-test. *P<0.05. All values are mean±SD.

CN1CC[C@@]23CCCC[C@@H]2[C@@H]1Cc1ccc(O)cc13 [dextrorphan, (+)-17-methyl-9α,13α,14α-morphinan-3-ol]
coordination deficits in rotarod test: does
